Measured values published in patent EP0010119A1, “Isoquinoline derivatives, their preparation and pharmaceutical compositions containing these compounds” (THE MASSACHUSETTS GENERAL HOSPITAL, priority 1978, dated 1980).

Key:
[1] = test system: twitch response of the tibialis anterior muscle; test: Neuromuscular block of the twitch response of the tibialis anterior muscle in anesthetized monkeys; format: in vivo, RHESUS MONKEY
[2] = test system: skeletal muscle relaxation; details: in vivo; cited from earlier work
[3] = time span from drug injection to full recovery of the twitch response, halothane, nitrous oxide and oxygen anesthesia, 4 animals per compound

Row | Structure (SMILES) | Range of dupation of action (minutes from injection to full recovery) [1, 3] | also measured
1 | COc1ccc(CC2c3cc(OC)c(OC)cc3CC[N+]2(C)CCCOC(=O)C=Cc2ccc(C=CC(=O)OCCC[N+]3(C)CCc4cc(OC)c(OC)cc4C3Cc3ccc(OC)c(OC)c3)cc2)cc1OC (stereo not shown) [GG195, Bis-3-[N-methyl-1-(3,4-dimethoxybenzyl) 6,7-dimethoxy-1,2,3,4-tetrahydroisoquinolinium] propyl p-phenylene-3,3'-diacrylate dichlorid] | 15 to 30 min | –
2 | COc1cc2c(cc1OC)C(Cc1cc(OC)c(OC)c(OC)c1)[N+](C)(CCCOC(=O)C=Cc1ccc(C=CC(=O)OCCC[N+]3(C)CCc4cc(OC)c(OC)cc4C3Cc3cc(OC)c(OC)c(OC)c3)cc1)CC2 (stereo not drawn) [HH109, Bis-3-[N-methyl-l-(3,4,5-trimethoxybenzyl)] 6,7-dimethoxy-1,2,3,4-tetrahydroisoquinolinium propyl p-phenylene-3,3'-diacrylate dichloride] | 20 to 30 min | –
3 | COc1ccc(CC2c3cc(OC)c(OC)cc3CC[N+]2(C)CCCOC(=O)Cc2ccc(CC(=O)OCCC[N+]3(C)CCc4cc(OC)c(OC)cc4C3Cc3ccc(OC)c(OC)c3)cc2)cc1OC (stereo not shown) [KK100] | 10 to 20 min | –
4 | COc1cc2c(cc1OC)C(Cc1cc(OC)c(OC)c(OC)c1)[N+](C)(CCCOC(=O)Cc1ccc(CC(=O)OCCC[N+]3(C)CCc4cc(OC)c(OC)cc4C3Cc3cc(OC)c(OC)c(OC)c3)cc1)CC2 (stereo not shown) [LL46, Bis-3-(N-methyl-1-(3,4,5-trimethoxybenzyl) 6,7-dimethoxy-1,2,3,4-tetrahydroisoquinolinium) propyl p-phenylene-3,3'-diacetate dichloride] | 15 to 25 min | –
5 | C[N+](C)(C)CCOC(=O)CCC(=O)OCC[N+](C)(C)C [Succinyl-choline, succinylcholine chloride] | – | ED95 ([1]; rhesus monkey, in vivo): 1,0 - 2,0 MG/NG cation; Range of dupation of action (minutes from injection to full recovery) ([1]; rhesus monkey, in vivo): 4 to 6 min; duration of action [2]: 5 to 15 min
6 | C[N+](C)(C)CCCCCCCCCC[N+](C)(C)C [decamethonium] | – | duration of action [2]: 20 to 40 min
7 | COc1cc2c3cc1Oc1cc(ccc1O)C[C@@H]1c4c(cc(OC)c(O)c4Oc4ccc(cc4)C[C@@H]3N(C)CC2)CC[N+]1(C)C.Cl.O.O.O.O.O.[Cl-] [l-Tube-curarine, d-tubocurarine chloride] | 30 to 50 min | ED95 ([1]; dose range to produce 95 per cent block of the twitch response, muscle stimulated indirectly at 0,15 Hz via the sciatic nerve, halothane, nitrous oxide and oxygen anesthesia, 4 animals per compound): 0,2 - 0,4 MG/NG cation
